Active and inactive are the calls of the source. The rule behind the calls is not given here.
How the values were obtained:
[1] = target: C5a anaphylatoxin chemotactic receptor 2 (Homo sapiens) (UniProt Q9P296); assay: Agonist activity at C5a2 receptor in HMDM assessed as inhibition of LPS-induced TNFalpha release at 100 uM in presence of C5a1 antagonist PMX53 by ELISA
[2] = target: C5a anaphylatoxin chemotactic receptor 1/2 (Homo sapiens) (UniProt P21730+Q9P296); assay: Induction of C5a1-C5a2 heteromer formation (unknown origin) expressed in HEK293 cells at 100 uM by BRET assay; assay type: cell-based
[3] = target: T1, Mitogen-activated protein kinase; ERK1/ERK2 (Homo sapiens) (UniProt P27361+P28482); assay: Induction of ERK1/2 phosphorylation in HMDM at 100 uM incubated for 30 mins; assay type: protein assay
[4] = target: C5a anaphylatoxin chemotactic receptor 2 (Homo sapiens) (UniProt Q9P296); assay: Partial agonist activity at human C5a2 receptor assessed as induction of beta-arrestin-2 recruitment by DiscoverX Path Hunter kit based assay
[5] = target: T1, Mitogen-activated protein kinase; ERK1/ERK2 (Homo sapiens); assay: Agonist activity at C5a2 receptor in HMDM assessed as inhibition of C5a-induced induction of ERK1/2 phosphorylation in HMDM at 100 uM pre-incubated for 30 mins before C5a addition and measured after 10 mins
[6] = target: C5a anaphylatoxin chemotactic receptor 2 (Homo sapiens) (UniProt Q9P296); assay: Partial agonist activity at C5a2 receptor (unknown origin) expressed in HEK293 cells assessed as induction of beta-arrestin-2 recruitment incubated for 1 hr by BRET assay relative to C5a; assay type: cell-based
[7] = target: C5a anaphylatoxin chemotactic receptor 2 (Homo sapiens) (UniProt Q9P296); assay: Displacement of [125I]-C5a from C5a2 receptor (unknown origin) expressed in Flp-In CHO cell membranes at 100 uM incubated for 1 hr by microbeta scintillation counting assay
[8] = target: C5a anaphylatoxin chemotactic receptor 2 (Homo sapiens) (UniProt Q9P296); assay: Agonist activity at C5a2 receptor in HMDM assessed as inhibition of LPS-induced TNFalpha release at 0.1 to 100 uM by ELISA
[9] = target: T2, C5a anaphylatoxin chemotactic receptor 1 (Homo sapiens) (UniProt P21730); assay: Displacement of [125I]-C5a from C5a1 receptor (unknown origin) expressed in Flp-In CHO cell membranes incubated for 1 hr by microbeta scintillation counting assay
T2 sequence (whole entry): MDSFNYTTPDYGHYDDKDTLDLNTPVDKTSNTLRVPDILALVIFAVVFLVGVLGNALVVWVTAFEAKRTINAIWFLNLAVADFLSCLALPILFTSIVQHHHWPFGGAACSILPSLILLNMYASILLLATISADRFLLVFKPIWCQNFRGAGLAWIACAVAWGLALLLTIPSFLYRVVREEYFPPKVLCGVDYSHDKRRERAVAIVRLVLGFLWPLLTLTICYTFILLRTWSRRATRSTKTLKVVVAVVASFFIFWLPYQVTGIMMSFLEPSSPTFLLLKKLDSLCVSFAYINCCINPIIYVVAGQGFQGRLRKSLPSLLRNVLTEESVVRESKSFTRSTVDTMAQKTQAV

[10] = target: T2, C5a anaphylatoxin chemotactic receptor 1 (Homo sapiens); assay: Agonist activity at C5a1 receptor (unknown origin) expressed in HEK293 cells assessed as induction of beta-arrestin-2 recruitment at 100 uM incubated for 1 hr by BRET assay; assay type: cell-based
[11] = target: T2, C5a anaphylatoxin chemotactic receptor 1 (Homo sapiens); assay: Partial agonist activity at human C5a1 receptor assessed as induction of beta-arrestin-2 recruitment by DiscoverX Path Hunter kit based assay
[12] = target: C5a anaphylatoxin chemotactic receptor 2 (Homo sapiens) (UniProt Q9P296); assay: Agonist activity at C5a2 receptor in HMDM assessed as inhibition of LPS-induced IL-6 release at 100 uM by ELISA
[13] = target: C5a anaphylatoxin chemotactic receptor 2 (Homo sapiens) (UniProt Q9P296); assay: Partial agonist activity at C5a2 receptor (unknown origin) expressed in HEK293 cells assessed as induction of beta-arrestin-2 recruitment incubated for 1 hr by BRET assay; assay type: cell-based
[14] = target: C5a anaphylatoxin chemotactic receptor 2 (Homo sapiens) (UniProt Q9P296); assay: Displacement of [125I]-C5a from C5a2 receptor (unknown origin) expressed in Flp-In CHO cell membranes incubated for 1 hr by microbeta scintillation counting assay
[15] = target: C5a anaphylatoxin chemotactic receptor 2 (Homo sapiens) (UniProt Q9P296); assay: Agonist activity at C5a2 receptor in LPS-induced IHMDM assessed as effect on […] release at 0.1 to 100 uM by ELISA
Mus musculus [16] = assay: Inhibition of C5a-induced neutrophil mobilization in iv dosed C5aR2 (-/-) mouse; assay type: functional, organism-based
Mus musculus [17] = assay: Inhibition of C5a-induced neutrophil mobilization in iv dosed wild type mouse; assay type: functional, organism-based
[18] = target: C5a anaphylatoxin chemotactic receptor 2 (Homo sapiens) (UniProt Q9P296); assay: Agonist activity at C5a2 receptor in HMDM assessed as inhibition of LPS-induced IL-6 release at 10 to 100 uM by ELISA

Chain of C5a anaphylatoxin chemotactic receptor 2 (Homo sapiens) (Q9P296 whole entry): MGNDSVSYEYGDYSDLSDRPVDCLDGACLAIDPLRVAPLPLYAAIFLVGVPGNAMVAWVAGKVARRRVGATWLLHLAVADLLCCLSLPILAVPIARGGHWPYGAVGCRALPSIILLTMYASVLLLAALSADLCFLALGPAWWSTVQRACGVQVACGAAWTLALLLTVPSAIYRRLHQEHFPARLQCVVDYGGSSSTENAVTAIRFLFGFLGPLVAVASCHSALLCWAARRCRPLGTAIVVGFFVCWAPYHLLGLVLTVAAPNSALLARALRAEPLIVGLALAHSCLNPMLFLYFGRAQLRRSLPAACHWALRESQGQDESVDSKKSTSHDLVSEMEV
T1 sequence (P27361 whole entry, looked up): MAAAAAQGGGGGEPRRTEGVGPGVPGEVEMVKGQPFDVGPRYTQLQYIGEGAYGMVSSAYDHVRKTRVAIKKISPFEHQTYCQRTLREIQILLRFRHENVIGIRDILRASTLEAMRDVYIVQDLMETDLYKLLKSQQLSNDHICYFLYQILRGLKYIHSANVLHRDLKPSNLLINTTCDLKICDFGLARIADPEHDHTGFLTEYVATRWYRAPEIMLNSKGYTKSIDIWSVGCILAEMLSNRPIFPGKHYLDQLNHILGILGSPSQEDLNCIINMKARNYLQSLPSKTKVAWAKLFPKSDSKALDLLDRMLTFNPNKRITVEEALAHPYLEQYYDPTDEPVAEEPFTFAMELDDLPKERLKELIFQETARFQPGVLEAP
T1 sequence (P28482 whole entry, looked up): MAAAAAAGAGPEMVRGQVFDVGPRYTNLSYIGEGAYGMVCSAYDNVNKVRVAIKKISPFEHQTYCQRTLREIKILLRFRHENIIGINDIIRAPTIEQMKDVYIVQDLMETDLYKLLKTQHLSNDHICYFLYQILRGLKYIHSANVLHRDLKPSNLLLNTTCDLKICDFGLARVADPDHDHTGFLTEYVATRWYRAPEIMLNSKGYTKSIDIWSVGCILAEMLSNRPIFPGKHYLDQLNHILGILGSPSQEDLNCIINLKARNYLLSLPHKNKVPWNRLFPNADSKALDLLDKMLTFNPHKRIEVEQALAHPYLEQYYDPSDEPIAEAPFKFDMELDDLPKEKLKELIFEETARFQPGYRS

## Ac-LIRLWR-OH
[1]
  inhibition: inactive
[2]
  Activity: inactive
[3]
  Activity: inactive
[4]
  Activity: Active
[5]
  inhibition: Active
[6]
  Activity: 52.9%
[7]
  inhibition: Active
[8]
  inhibition: inactive
[9]
  inhibition: Dose-dependent effect
[10]
  Activity: inactive
[11]
  Activity: inactive
[12]
  inhibition: Active
[13]
  Activity: Dose-dependent effect
[14]
  inhibition: Dose-dependent effect
[15]
  Activity: inactive

## Ac-RHYPYWR-OH
Mus musculus [16]
  inhibition: inactive
[1]
  inhibition: inactive
[2]
  Activity: inactive
[3]
  Activity: inactive
[4]
  Activity: Active
[5]
  inhibition: Active
[6]
  Activity: 28.8%
[7]
  inhibition: Active
Mus musculus [17]
  inhibition: Active
[8]
  inhibition: inactive
[18]
  inhibition: Active
[9]
  inhibition: Dose-dependent effect
[10]
  Activity: inactive
[11]
  Activity: inactive
[13]
  Activity: Dose-dependent effect
[14]
  inhibition: Dose-dependent effect
[15]
  Activity: inactive
